In patent US12534444B2, “Treatment of cancer/inhibition of metastasis” (Celex Oncology Innovations Limited, priority 2010, dated 2026):

Legend:
Mat-LyLu cells = experiment: Transverse migration assay (Transwell); assay type: cell-based, rat
Procedure: This assay was used to represent the ability of cells to migrate as they intra/extravasate. […] The insert 602 has a migration filter membrane 605 in its base with 8 μm pores 606 extending therethrough.
Cells 607 were plated at a density of 2×10^4/ml on the filter membrane 605 and placed under a growth medium 608 containing 1% foetal bovine serum (FBS). A chemotactic gradient was created across the filter membrane 605 by placing growth medium 609 containing 10% FBS in the lower section 604 of the chamber.
Cells were allowed to migrate across the filter membrane 605 over a period of 24 hours, cells migrating and adhering to the underside of the filter membrane 605.
At the end of each assay, non-migrated cells were removed from the upper surface of the insert 602 with two different swabs
The number of cells migrating to the underside of the insert 602 was determined using crystal violet staining. Migrated cells were fixed for 15 minutes with ice-cold methanol. Then 0.5% crystal violet (in 25% methanol) was added for 15 minutes. The inserts were swabbed again and then washed in water and allowed to dry. Cells were then counted using twelve separate fields of view per insert (×200 magnification).
With the exception of single cell adhesion tests, which are discussed in the following paragraph, experiments were carried out under either; • (i) normal normoxic conditions ([…], 5% carbon dioxide), or • (ii) following 24 hours hypoxic pre-treatment (2% O2, 5% CO2, 93% N2) continued during the assays.

MDA-MB-231 cells = experiment: Single-cell adhesion assay (SCAMA, detachment negative pressure); assay type: cell-based, human
Procedure: FIG. 4 is a schematic illustration of the single-cell adhesion measurement apparatus (SCAMA) first described in the paper by Palmer et al. (2008). Human breast cancer cells from the MDA-MB-231 cell line were plated at a density of 2.5×10^4 cells/ml and left to settle in a cell culture dish 401 for 48 hours prior to measurements. Medium was removed and 2 ml of the drug under study was applied for 10 minutes. Adhesion was measured using a glass micropipette 402 connected to a vacuum pump 403 via plastic tubing 404. The tip of the micropipette was drawn to about 20 μm (range, 17-24 μm) tip diameter. The vacuum pump was used to create negative pressure inside a reservoir 405 so that the negative pressure could be applied to the tip of the micropipette by pressing the thumb to the open end of a sealable T-piece 406. […] The pressure was measured using a digital manometer 409 connected to a computer 410 via a RS232 cable 411. Using a micromanipulator 412, the micropipette 402 was positioned on the periphery of a single cell. […] The negative pressure required to detach the cell was recorded on the computer as a pressure spike. The peak of the spike (“detachment negative pressure” (DNP)) was used as a measure of the cell's adhesiveness. Using this technique, several recordings could be made from a single dish within minutes. […] In order to test for the reversibility of a given effect, the pharmacological agent was washed off, fresh medium was added and the plate was incubated for a further 10 minutes prior to re-measurement. Each treatment was carried out on at least two dishes of cells, at least 100 cells per dish were measured, and the experiment was repeated three times (with corresponding controls). In the single cell adhesion experiments, hypoxia was induced chemically by application of hydrogen peroxide (1-500 μM) for 24 hours.

SMILES: COc1ccccc1OCC(O)CN1CCN(CC(=O)Nc2c(C)cccc2C)CC1 (stereo not drawn) [ranolazine]
- TRANSVERSE MIGRATION (Mat-LyLu cells; Hypoxia, 20 μM): reduced the transverse migration of the cells in a statistically significant way
- TRANSVERSE MIGRATION (Mat-LyLu cells; Hypoxia, 20 μM, listed as RANOLAZINE): decreased
- TRANSVERSE MIGRATION (Mat-LyLu cells; Hypoxia, 50 μM): reduced the transverse migration of the cells in a statistically significant way
- TRANSVERSE MIGRATION (Mat-LyLu cells; Hypoxia, 50 μM, listed as RANOLAZINE): decreased
- TRANSVERSE MIGRATION (Mat-LyLu cells; Hypoxia, 300 μM): reduced the transverse migration of the cells in a statistically significant way
- TRANSVERSE MIGRATION (Mat-LyLu cells; Hypoxia, 300 μM, listed as RANOLAZINE): decreased
- TRANSVERSE MIGRATION (Mat-LyLu cells; Normoxia, 20 μM): reduced the transverse migration
- TRANSVERSE MIGRATION (Mat-LyLu cells; Normoxia, 20 μM, listed as RANOLAZINE): decreased
- TRANSVERSE MIGRATION (Mat-LyLu cells; Normoxia, 50 μM): reduced the transverse migration
- TRANSVERSE MIGRATION (Mat-LyLu cells; Normoxia, 50 μM, listed as RANOLAZINE): decreased
- TRANSVERSE MIGRATION (Mat-LyLu cells; Normoxia, 300 μM): not statistically significant
- TRANSVERSE MIGRATION (Mat-LyLu cells; Normoxia, 300 μM, listed as RANOLAZINE): no effect
- potency on transverse migration compared with positive control TTX (Mat-LyLu cells; higher concentrations tested, TTX 1 μmol): more potent than the toxin (TTX)
- ADHESION (MDA-MB-231 cells; Hypoxia (chemically induced, hydrogen peroxide 24 hours), 0.1 μM): increased
- ADHESION (MDA-MB-231 cells; Hypoxia (chemically induced, hydrogen peroxide 24 hours), 1 μM): continued to increase
- ADHESION (MDA-MB-231 cells; Hypoxia (chemically induced, hydrogen peroxide 24 hours), 1 μM, listed as RANOLAZINE): increased
- ADHESION (MDA-MB-231 cells; Hypoxia (chemically induced, hydrogen peroxide 24 hours), 10 μM): continued to increase
- ADHESION (MDA-MB-231 cells; Hypoxia (chemically induced, hydrogen peroxide 24 hours), 10 μM, listed as RANOLAZINE): decreased
- ADHESION (MDA-MB-231 cells; Hypoxia (chemically induced, hydrogen peroxide 24 hours), 100 μM): continued to increase
- ADHESION (MDA-MB-231 cells; Hypoxia (chemically induced, hydrogen peroxide 24 hours), 100 μM, listed as RANOLAZINE): no benefit
- ADHESION (MDA-MB-231 cells; Normoxia, 0.1 μM): no effect
- ADHESION (MDA-MB-231 cells; Normoxia, 0.5 μM): increased
- ADHESION (MDA-MB-231 cells; Normoxia, 1 μM): increased
- ADHESION (MDA-MB-231 cells; Normoxia, 10 μM): increased
- ADHESION (MDA-MB-231 cells; Normoxia, 20 μM): increased
- ADHESION (MDA-MB-231 cells; Normoxia, 100 μM): increased
- effect on adhesion in hypoxia compared with normoxia (MDA-MB-231 cells; before convergence at the higher drug concentrations): approximately 10 fold
